Data taken from ChEMBL document CHEMBL4190214, “Identification of BMI1 Promoter Inhibitors from Beaumontia murtonii and Eugenia operculata” (J Nat Prod, 2017).

Key:
[1] = Inhibition of BMI1 promoter (unknown origin) expressed in HEK293T cells after 24 hrs by luciferase reporter gene assay; assay type: cell-based; details: HEK-293T
[2] = system: Huh-7; experiment: Inhibition of self-renewal of human HuH7 cells assessed as reduction in EpCAM positive fraction at 50 uM after 20 mins by propidium iodide staining-based flow cytometric analysis; assay type: functional; details: Huh-7, 20 min
[3] = system: DU-145; experiment: Cytotoxicity against human DU145 cells after 24 hrs by fluorescein diacetate staining-based fluorescence assay; assay type: functional, cell-based; details: DU-145, 24 h
[4] = system: Huh-7; experiment: Inhibition of self-renewal of human HuH7 cells assessed as EpCAM positive fraction at 0.5 uM after 20 mins by propidium iodide staining-based flow cytometric analysis (reference value: 91.2 %); assay type: functional; design: scale not given: the % may be the effect or the level left
[5] = system: HCT-116; experiment: Cytotoxicity against human HCT116 cells after 24 hrs by fluorescein diacetate staining-based fluorescence assay; assay type: functional, cell-based; details: HCT-116, 24 h
[6] = system: Huh-7; experiment: Inhibition of self-renewal of human HuH7 cells assessed as EpCAM negative fraction at 5 uM after 20 mins by propidium iodide staining-based flow cytometric analysis (reference value: 8.8 %); assay type: functional; design: scale not given: the % may be the effect or the level left
[7] = system: Huh-7; experiment: Inhibition of self-renewal of human HuH7 cells assessed as EpCAM positive fraction at 5 uM after 20 mins by propidium iodide staining-based flow cytometric analysis (reference value: 91.2 %); assay type: functional; design: scale not given: the % may be the effect or the level left
[8] = system: Huh-7; experiment: Inhibition of self-renewal of human HuH7 cells assessed as EpCAM negative fraction at 0.5 uM after 20 mins by propidium iodide staining-based flow cytometric analysis (reference value: 8.8 %); assay type: functional; design: scale not given: the % may be the effect or the level left
[9] = organism: Homo sapiens; experiment: Inhibition of BMI1 promoter in human HCT116 cells assessed as decrease in BMI1 protein expression levels after 24 hrs by Western blot analysis; assay type: cell-based
[10] = system: Huh-7; experiment: Inhibition of self-renewal capacity of human EpCAM-positive HuH7 cells assessed as reduction in sphere formation after 6 days; assay type: functional, cell-based
[11] = system: HEK293; experiment: Cytotoxicity against HEK293 cells after 24 hrs by fluorescein diacetate staining-based fluorescence assay; assay type: cell-based; details: Homo sapiens, HEK293, 24 h

CO[C@H]1C[C@H](O[C@H]2CC[C@@]3(C)[C@H](CC[C@@H]4[C@@H]3CC[C@]3(C)[C@@H](C5=CC(=O)OC5)CC[C@]43O)C2)O[C@H](C)[C@H]1O
IC50 [1]: 98 nM

C=C(C)[C@@H]1CC[C@]2(C(=O)OC)CC[C@]3(C(=O)O)[C@H](CC[C@@H]4[C@@]5(C)CC[C@H](O)C(C)(C)[C@@H]5CC[C@]43C)[C@@H]12
IC50 [1]: 19500 nM

CC1(C)CC[C@]2(C(=O)O)CC[C@]3(C)C(=CC[C@@H]4[C@@]5(C)C[C@@H](O)[C@H](O)C(C)(C)[C@@H]5CC[C@]43C)[C@@H]2C1 [MASLINIC ACID]
IC50 [1]: 22700 nM

CO[C@H]1C[C@@H](O[C@H]2CC[C@@]3(C)[C@H](CC[C@@H]4[C@@H]3CC[C@]3(C)[C@@H](C5=CC(=O)OC5)CC[C@]43O)C2)O[C@@H](C)[C@@H]1O
IC50 [1]: 450 nM

O=[N+]([O-])c1ccc(Nc2ccccc2-c2ccccc2)c2nonc12
inhibition at 50 µM [2]: 30 to 40%

C[C@]12CC[C@H](O)C[C@H]1CC[C@@H]1[C@@H]2CC[C@]2(C)[C@@H](C3=CC(=O)OC3)CC[C@]12O [DIGITOXIGENIN]
IC50 [1]: 1700 nM

CO[C@@H]1C[C@H](O[C@H]2CC[C@@]3(C)[C@H](CC[C@@H]4[C@@H]3CC[C@]3(C)[C@@H](C5=CC(=O)OC5)CC[C@]43O)C2)O[C@@H](C)[C@@H]1O
IC50 [3]: 140 nM
Activity [4]: 80.1%
IC50 [5]: 58 nM
Activity [6]: 27.1%
Activity [7]: 72.9%
Activity [8]: 19.9%
inhibition [9]: Dose-dependent effect
IC50 [1]: 93 nM
inhibition [10]: Dose-dependent effect
IC50 [11]: 5000 nM
